Source: the NIST ThermoML archive (doi:10.1016/j.tca.2018.10.026)
Numbers after ± are expanded uncertainties.

Test: Molar enthalpy of transition or fusion
Conditions: Crystal; DSC

Molar enthalpy of transition or fusion: 10.5 ± 0.22 kcal/mol
SMILES: O.O.O.O.O.O.[Br-].[Br-].[Ca+2] [calcium bromide hexahydrate]
